According to US20240279215A1 (Cytokinetics, Incorporated, priority 2022, published 2024):

Biological target: human NAMPT (Homo sapiens (Human), UniProt P43490)
Test: NMN fluorescence biochemical assay (human recombinant NAMPT enzyme assay)
Method in brief: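 NMN formed was detected by fluorescence (Ex/Em 355/460 nm) after acetophenone, KOH and formic acid derivatization. The cell-free reaction ran 60 min at ambient temperature with 6 nM human NAMPT, 150 μM nicotinamide, 20 μM PRPP, 2.5 mM ATP, pH 7.2 HEPES, and compound dose responses.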

human NAMPT, sequence (P43490 whole entry): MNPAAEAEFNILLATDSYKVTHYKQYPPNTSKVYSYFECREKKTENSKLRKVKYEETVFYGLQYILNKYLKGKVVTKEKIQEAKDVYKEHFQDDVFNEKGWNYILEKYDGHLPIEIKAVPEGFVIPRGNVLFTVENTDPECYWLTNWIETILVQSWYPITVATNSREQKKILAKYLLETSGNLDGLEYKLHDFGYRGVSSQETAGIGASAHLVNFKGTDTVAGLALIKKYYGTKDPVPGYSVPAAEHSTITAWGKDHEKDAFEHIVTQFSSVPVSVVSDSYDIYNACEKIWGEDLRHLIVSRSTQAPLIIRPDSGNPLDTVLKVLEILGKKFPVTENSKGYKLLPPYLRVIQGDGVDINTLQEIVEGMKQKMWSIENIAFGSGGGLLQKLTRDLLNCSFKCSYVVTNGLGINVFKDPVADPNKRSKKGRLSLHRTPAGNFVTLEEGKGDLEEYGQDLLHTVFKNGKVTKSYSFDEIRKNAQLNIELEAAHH

| AC1.4 Human [µM] | EC50 [µM] | Compound |
| --- | --- | --- |
| 8.56 | 36.3 | Cc1ccc(Cc2ccc(NC(=O)OCc3ccc(C(F)F)cc3)cc2)cn1 [Compound 328, (4-(difluoro-13-methyl)phenyl)methyl (4-((6-methylpyridin-3-yl)methyl)phenyl)carbamate] |
| 0.71 | 9.4 | C[C@@H](c1ccc(NC(=O)OCc2ccc(Cl)cc2)cc1)N(C)C(=O)N1CCC1 [Compound 89, 4-chlorobenzyl (S)-(4-(1-(N-methylazetidine-1-carboxamido)ethyl)phenyl)carbamate] |
| 0.58 | 4.22 | CO[C@H]1CC[C@H](NC(=O)Cc2ccc(NC(=O)OCc3ccc(Cl)cc3)cc2)CC1 [Compound 64, (4-chlorophenyl)methyl N-[4-({[(1R,4R)-4-methoxycyclohexyl]carbamoyl}methyl)phenyl]carbamate] |
| 6.86 | 55.7 | Cc1ocnc1C(=O)NCc1ccc(NC(=O)OCc2ccc(Cl)cc2)cc1 [Compound 321, (4-chlorophenyl)methyl N-(4-{[(5-methyl-1,3-oxazol-4-yl)formamido]methyl}phenyl)carbamate] |
| 0.66 | 3.12 | O=C(Nc1ccc(CN2CCC3(CC3)C2=O)cc1)OCc1ccc(Cl)cc1 [Compound 84, (4-chlorophenyl)methyl N-[4-({4-oxo-5-azaspiro[2.4]heptan-5-yl}methyl)phenyl]carbamate] |
| 1.93 | 10.2 | O=C(Nc1ccc(CC(=O)N2CCC(F)CC2)cc1)OCc1ccc(Cl)cc1 [Compound 212, (4-chlorophenyl)methyl N-{4-[2-(4-fluoropiperidin-1-yl)-2-oxoethyl]phenyl}carbamate] |
| 0.72 | 7.32 | COc1cc(C(=O)N(C)Cc2ccc(NC(=O)OCc3ccc(Cl)cc3)cc2)n(C)n1 [Compound 90, (4-chlorophenyl)methyl N-(4-{[1-(5-methoxy-2-methylpyrazol-3-yl)-N-methylformamido]methyl}phenyl)carbamate] |
| 0.29 | 2.57 | C[C@H](NC(=O)c1ccnn1C1CCOCC1)c1ccc(NC(=O)OCc2ccc(Cl)cc2)cc1 [Compound 20, (4-chlorophenyl)methyl N-{4-[(1S)-1-{[2-(oxan-4-yl)pyrazol-3-yl]formamido}ethyl]phenyl}carbamate] |
| 3.32 | 6.15 | O=C(Nc1ccc(CC(=O)N2CCC(F)(F)CC2)cc1)OCc1ccc(Cl)cc1 [Compound 274, (4-chlorophenyl)methyl N-{4-[2-(4,4-difluoropiperidin-1-yl)-2-oxoethyl]phenyl}carbamate] |
| 3.61 | 47.9 | COC1CCN(C(=O)Cc2ccc(NC(=O)OCc3ccc(Cl)cc3)cc2)CC1 [Compound 283, (4-chlorophenyl)methyl N-{4-[2-(4-methoxypiperidin-1-yl)-2-oxoethyl]phenyl}carbamate] |
| 0.95 | 21.7 | O=C(Nc1ccc(CC(=O)N2CCC(O)CC2)cc1)OCc1ccc(Cl)cc1 [Compound 119, (4-chlorophenyl)methyl N-{4-[2-(4-hydroxypiperidin-1-yl)-2-oxoethyl]phenyl}carbamate] |
| 0.94 | 3.13 | CC(=O)N1CCC(Cc2ccc(NC(=O)OCc3ccncc3)cc2)CC1 [Compound 115, pyridin-4-ylmethyl (4-((1-acetylpiperidin-4-yl)methyl)phenyl)carbamate] |
| 8.89 | 50.6 | CN1CCN(C(=O)Cc2ccc(NC(=O)OCc3ccc(Cl)cc3)cc2)CC1=O [Compound 332, (4-chlorophenyl)methyl N-{4-[2-(4-methyl-3-oxopiperazin-1-yl)-2-oxoethyl]phenyl}carbamate] |
| 5.02 | 5.55 | O=C(Nc1ccc(Cc2ccccc2)cc1)OCc1ccc(Cl)cc1 [Compound 307] |
| 6.60 | 34.2 | O=C(Nc1ccc(CC2CCNCC2)cc1)OCc1cnco1 [Compound 320, oxazol-5-ylmethyl (4-(piperidin-4-ylmethyl)phenyl)carbamate] |
| 1.43 | 3.54 | O=C(Nc1ccc(Cc2cccnc2)cc1)OCc1ccc(Cl)cc1 [Compound 172, 4-chlorobenzyl (4-(pyridin-3-ylmethyl)phenyl)carbamate] |
| 0.34 | 1.88 | O=C(Nc1ccc(CN2CCN(c3cnccn3)CC2)cc1)OCc1ccc(Cl)cc1 [Compound 24, (4-chlorophenyl)methyl N-(4-{[4-(pyrazin-2-yl)piperazin-1-yl]methyl}phenyl)carbamate] |
| 2.25 | 50.6 | O=C1CN(C2CCC2)[C@@H](c2ccc(NC(=O)OCc3ccc(Cl)cc3)cc2)CN1 [Compound 236, 4-chlorobenzyl (S)-(4-(1-cyclobutyl-5-oxopiperazin-2-yl)phenyl)carbamate] |
| 25.86 | 4.96 | Cn1cc(COC(=O)Nc2ccc(Cc3ccncc3)cc2)cn1 [Compound 355, (1-methyl-1H-pyrazol-4-yl)methyl (4-(pyridin-4-ylmethyl)phenyl)carbamate] |
| 2.38 | 19.8 | O=C(Nc1ccc(CN2CCOC2=O)cc1)OCc1ccc(Cl)cc1 [Compound 242, (4-chlorophenyl)methyl N-{4-[(2-oxo-1,3-oxazolidin-3-yl)methyl]phenyl}carbamate] |

Further lines, the molecule ahead of its results:

| Compound | AC1.4 Human [µM] | EC50 [µM] |
| --- | --- | --- |
| CC(C)C(=O)N1CCC(c2ccc(NC(=O)OCc3cnco3)cc2)CC1 [Compound 7, 1,3-oxazol-5-ylmethyl N-{4-[1-(2-methylpropanoyl)piperidin-4-yl]phenyl}carbamate] | 0.11 | 20.8 |
| O=C(Nc1ccc(C2CCN(CC(F)F)CC2)cc1)OCc1cnco1 [Compound 113, 1,3-oxazol-5-ylmethyl N-{4-[1-(2,2-difluoroethyl)piperidin-4-yl]phenyl}carbamate] | 0.94 | 51 |
| COC(=O)N1CCC(Cc2ccc(NC(=O)OCc3cnco3)cc2)CC1 [Compound 11, methyl 4-(4-(((oxazol-5-ylmethoxy)carbonyl)amino)benzyl)piperidine-1-carboxylate] | 0.21 | 22.5 |
| CS(=O)(=O)N1CCC[C@@H](c2ccc(NC(=O)OCc3cnco3)cc2)C1 [Compound 382, oxazol-5-ylmethyl (S)-(4-(1-(methylsulfonyl)piperidin-3-yl)phenyl)carbamate] | 0.35 | 22.4 |
| COC(=O)N1CC2CCC(C1)C2Cc1ccc(NC(=O)OCc2cnco2)cc1 (centres unmarked) [Compound 421, methyl 8-(4-(((oxazol-5-ylmethoxy)carbonyl)amino)benzyl)-3-azabicyclo[3.2.1]octane-3-carboxylate] | 0.13 | 2.33 |
| O=C(Nc1ccc(CC2CC3(CCNC3)C2)c(F)c1)OCc1cnco1 (centres unmarked) [Compound 378, oxazol-5-ylmethyl (4-((6-azaspiro[3.4]octan-2-yl)methyl)-3-fluorophenyl)carbamate] | 0.38 | 18.6 |
| CC(C)C(=O)N1CCC(Cc2ccc(NC(=O)OCc3cnco3)cc2)CC1 [Compound 35, oxazol-5-ylmethyl (4-((1-isobutyrylpiperidin-4-yl)methyl)phenyl)carbamate] | 0.39 | 37.9 |
| CC(=O)N1CCC2(CC(c3ccc(NC(=O)OCc4cnco4)cc3F)C2)C1 (single isomer, unassigned) [Compound 373] | 0.013 | 0.24 |
| CN(C)C(=O)N1CCC(c2ccc(NC(=O)OCc3cnco3)cc2)CC1 [Compound 4, oxazol-5-ylmethyl (4-(1-(dimethylcarbamoyl)piperidin-4-yl)phenyl)carbamate] | 0.06 | 21.8 |
| CC(C)C(=O)N1CC2CCC(C1)C2Cc1ccc(NC(=O)OCc2cnco2)cc1 (centres unmarked) [Compound 423, oxazol-5-ylmethyl (4-((3-isobutyryl-3-azabicyclo[3.2.1]octan-8-yl)methyl)phenyl)carbamate] | 0.18 | 15.4 |
| CS(=O)(=O)N1CC2CCC(C1)C2Cc1ccc(NC(=O)OCc2cnco2)cc1 (centres unmarked) [Compound 420, oxazol-5-ylmethyl (4-((3-(methylsulfonyl)-3-azabicyclo[3.2.1]octan-8-yl)methyl)phenyl)carbamate] | 0.12 | 6.55 |
| COC(=O)N1CCC(c2ccc(NC(=O)OCc3cnco3)cc2F)CC1 [Compound 417, methyl 4-(2-fluoro-4-(((oxazol-5-ylmethoxy)carbonyl)amino)phenyl)piperidine-1-carboxylate] | 0.18 | 27 |
| CC(=O)N1CCC[C@H](c2ccc(NC(=O)OCc3cnco3)cc2)C1 [Compound 375, oxazol-5-ylmethyl (R)-(4-(1-acetylpiperidin-3-yl)phenyl)carbamate] | 1.32 | 53.8 |
| CCS(=O)(=O)N1CCC(Cc2ccc(NC(=O)OCc3cnco3)cc2)CC12CC2 (centres unmarked) [Compound 418, oxazol-5-ylmethyl (4-((4-(ethylsulfonyl)-4-azaspiro[2.5]octan-7-yl)methyl)phenyl)carbamate] | 0.18 | 5.97 |
| CN(C)S(=O)(=O)N1CC2(CC(c3ccc(NC(=O)OCc4cnco4)cc3F)C2)C1 [Compound 387, oxazol-5-ylmethyl (4-(2-(N,N-dimethylsulfamoyl)-2-azaspiro[3.3]heptan-6-yl)-3-fluorophenyl)carbamate] | 0.08 | 2.76 |
| CCS(=O)(=O)N1CCC(c2ccc(NC(=O)OCc3cnco3)cc2)CC1 [Compound 427, oxazol-5-ylmethyl (4-(1-(ethylsulfonyl)piperidin-4-yl)phenyl)carbamate] | 0.16 | 2.64 |
| C[C@H](NC(=O)c1ccc(F)cc1)c1ccc(NC(=O)OCc2cnco2)cc1 [Compound 39, 1,3-oxazol-5-ylmethyl N-{4-[(1S)-1-[(4-fluorophenyl)formamido]ethyl]phenyl}carbamate] | 0.43 | 19.2 |
